Key:
HLA-B27 rats [1] = assay: Myeloperoxidase activity in colon of HLA-B27 rats (neutrophil infiltration); assay type: in vivo, rat
Protocol: (§1) A representative NF-kB selective ER ligand was evaluated in the HLA rat standard pharmacological test procedure, which emulates inflammatory bowel disease in humans. The following briefly describes the procedure used and results obtained. Male HLA-B27 rats were obtained from Taconic and provided unrestricted access to a food (PMI Lab diet 5001) and water. At the start of the study, rats were 22-26 weeks old.
Rats were dosed orally once per day for 5 days with one of the regimens listed below. […] A section of colon was prepared for histological analysis and an additional segment was analyzed for myeloperoxidase activity.
Myeloperoxidase activity [Bradley, et al., Blood 60: 618-622 (1982)]. Myeloperoxidase activity was assessed as a measure of neutrophil infiltration into the colon. […]
Tissue was resuspended and homogenized in 2.5ml (1:5 w/v) of 50 mM H2KPO4 with 10 mM EDTA and 0.5% Hex Ammonium Bromide to help solubilize the intracellular MPO. […] The supernatant was analyzed following these steps.
The test mixture was prepared by adding 2.9 ml of 50 mM H2KPO4 with 0.167 O-Dianisidine/ml with 0.0005% H2O2 into a reaction tube. […] OD was measured every 2 minutes reaction time at 460 nm against a blank containing 2.9 ml of the reaction mixture and 100 μl of the 0.5% ammonium bromide solution. […]

HLA-B27 rats [2] = assay: Histological scoring of disease severity in the colon of HLA-B27 rats; assay type: in vivo, rat; conditions: for Fibrosis (0-2) / Inflammation (0-3) / Lesion depth (0-2) / Total score / Ulceration (0-2): histological score, colon
Protocol: as §1
(§2) Rats were dosed orally once per day for 5 days with one of the regimens listed below. There were five rats in each group and the last dose was administered two hours before euthanasia. • vehicle (50% DMSO/50% Dulbecco's PBS) • 17α-ethinyl-17β-estradiol (EE, 10 μg/kg) • Compound A (150 μg/kg) • Compound A (50 μg/kg) • Compound A (1.5 μg/kg) Stool quality was observed daily and graded according to the following scale: Diarrhea=3; soft stool=2; normal stool=1. At the end of the study, serum was collected and stored at −70° C. A section of colon was prepared for histological analysis and an additional segment was analyzed for myeloperoxidase activity.
Histological analysis. Colonic tissue was immersed in 10% neutral buffered formalin. Each specimen of colon was separated into four samples for evaluation. The formalin-fixed tissues were processed in a Tissue Tek vacuum infiltration processor (Miles, Inc; West Haven, Conn.) for paraffin embedding. The samples were sectioned at 5 μm and then stained with hematoxylin and eosin (H&E) for blinded histologic evaluations using a scale modified after Boughton-Smith. Sections of colonic tissue were evaluated for several disease indicators and given relative scores. After the scores were completed the samples were unblinded, and data were tabulated and analyzed by ANOVA linear modeling with multiple mean comparisons.

HLA-B27 rats [3] = assay: Stool character in the HLA rat standard pharmacological test procedure; assay type: in vivo
Protocol: as §1, §2

immature female rats = assay: Effect on uterine wet weights in immature female rats; assay type: in vivo, rat
Protocol: Animals were treated once per day by gavage for three days. Following euthanasia on day four (24 h after the last dose) the uteri were removed, stripped of remaining fat and mesentery and weighed. The dose of the compound of example 3 chosen (50 mg/kg) was 500 fold higher than the efficacious dose in the above experiments.

[4] = 1.5 mcg/kg orally once per day for 5 days
[5] = 50 mcg/kg orally once per day for 5 days
[6] = 150 mcg/kg orally once per day for 5 days

Q: Which results are given for `CC1c2cc(F)ccc2-c2ccccc2N1S(=O)(=O)c1ccc(O)cc1` (centres unmarked) [Example 3, 4-[(8-Fluoro-6-methylphenanthridin-5(6H)-yl)sulfonyl]phenol]?
A: MPO activity in colon (HLA-B27 rats [1]; 150 μg/kg oral): effectively inhibit MPO activity; MPO activity in colon (HLA-B27 rats [1]; the lower doses (50 and 1.5 μg/kg) oral): no effect; All disease parameters measured (ulcerations, lesions, fibrosis, inflammatory cells), colon histology (HLA-B27 rats [2]; 50 μg/kg oral): significantly improved; All disease parameters measured (ulcerations, lesions, fibrosis, inflammatory cells), colon histology (HLA-B27 rats [2]; 150 μg/kg oral): significantly improved; Fibrosis (0-2) (HLA-B27 rats [2]; [4]): 0.94 ± 0.52; Inflammation (0-3) (HLA-B27 rats [2]; [4]): 2.50 ± 0.35; Lesion depth (0-2) (HLA-B27 rats [2]; [4]): 1.1 ± 0.35; Total score (HLA-B27 rats [2]; [4]): 5.75 ± 1.41; Ulceration (0-2) (HLA-B27 rats [2]; [4]): 1.25 ± 0.24; Fibrosis (0-2) (HLA-B27 rats [2]; [5]): 0.38 ± 0.32; Inflammation (0-3) (HLA-B27 rats [2]; [5]): 1.69 ± 0.52; Lesion depth (0-2) (HLA-B27 rats [2]; [5]): 0.56 ± 0.24; Total score (HLA-B27 rats [2]; [5]): 3.25 ± 1.0; Ulceration (0-2) (HLA-B27 rats [2]; [5]): 0.63 ± 0.25; Fibrosis (0-2) (HLA-B27 rats [2]; [6]): 0.19 ± 0.24; Inflammation (0-3) (HLA-B27 rats [2]; [6]): 1.50 ± 0.20; Lesion depth (0-2) (HLA-B27 rats [2]; [6]): 0.31 ± 0.24; Total score (HLA-B27 rats [2]; [6]): 2.38 ± 0.83; Ulceration (0-2) (HLA-B27 rats [2]; [6]): 0.38 ± 0.32; Stool score (HLA-B27 rats [3]; 1.5 μg/kg oral): No effect; Stool score (HLA-B27 rats [3]; 50 μg/kg oral): No effect; Stool score (HLA-B27 rats [3]; 150 μg/kg oral, after 4 days of treatment): improvement in stool score; melting point: 188 °C; Uterine wet weight (immature female rats; 50 mg/kg orally once per day for three days): no increase

Q: For `COc1cc(OC)cc(N2CCN(C(=O)[C@](C)(C#N)[C@H](c3ccccc3OC)c3cccc4ccccc34)CC2)c1` [Example 4, (S)-3-[4-(3,5-dimethoxyphenyl)piperazin-1-yl]-2-[(S)-(2-methoxyphenyl)(1-naphthyl)methyl]-2-methyl-3-oxopropanenitrile], which melting point is on record?
A: Its melting point is 186 to 188 °C.

Q: With `C#C[C@]1(O)CC[C@H]2[C@@H]3CCc4cc(O)ccc4[C@H]3CC[C@@]21C` [17α-ethinylestradiol, 17α-ethinyl-17β-estradiol, reference compound] as the molecule, how does the Uterine wet weight (immature female rats; 1.5 μg/kg (EC80)) read?
A: The Uterine wet weight was “significantly stimulated”.

— patent publication US20050119276A1, “Methods of treating inflammatory bowel disease using NF-kB inhibitors” (Wyeth, priority 2003, published 2005)
